Measurements published in patent US6596878B2, “Methods and compositions for inhibiting cell proliferative disorders” (Yissum Research & Development Company of the Hebrew …, priority 1994, dated 2003).
Where “and” joins values, the source holds several entries; their conditions need not be identical. Equal values may be shown once. Read-outs that look alike come from different tables or passages of the source.

Legend:
human EGF receptor = biological target: T1, human EGF receptor (Homo sapiens, UniProt P00533); assay: EGF-receptor whole cell kinase assay (EGFR-3T3); format: cell-based
T1 construct: expressed in transfected cells; host or cells: NIH3T3 clone C7 (EGFR/C7; mouse fibroblasts)
Protocol: (§1) The following target cells were used for cellular kinaseassays: NIH3T3 clone C7 (Honegger et al., supra) engineered to over-express human EGF receptor; NIH3T3 cells engineered to over-express a chimeric receptor containing the EGFR extracellular domain and the HER2 intracellular kinase domain; the human mammary carcinoma line BT474 (ATCC HTB2) expressing HER2; and the human glioblastoma line U1242 that expresses PDGFR-β. Growth assays were carried out using human mammary epithelial SKBR3 (ATCC HTB30) cells, SKOV3 (ATCC HTB77) human ovarian cancer cell line, A431 cells, MCF7 human breast carcinoma cells, MCF7 cells overexpress the HER2 kinase (MCF7-HER2), NIH3T3 cells, and NIH3T3 cells overexpressing the HER2 kinase (3T3-HER2).
Unless otherwise stated the effect of various compounds on receptor tyrosine kinases were assayed as described in this section.
1. EGF-receptor Whole Cell Kinase Assay
EGFR kinase activity (EGFR-3T3 assay) in whole cells was measured as described below:
The following protocol was used:
A. Coat ELISA plates (Corning, 96 well, Cat. #25805-96) with 05-101 antibody at 0.5 μg per well in PBS, 150 μl final volume/well, and store overnight at 4° C. Coated plates are good for up to 10 days when stored at 4° C.
B. On day of use, remove coating buffer and replace with blocking buffer (5% Carnation Instant Non-Fat Dry Milk in PBS). Incubate the plate, shaking, at room temperature (about 23° C. to 25° C.) for 30 minutes. Just prior to use, remove blocking buffer and wash plate 4 times with TBST buffer.
A. EGFR/C7 cell line (Honegger, et al., Cell 51:199-209, 1987) can be use for this assay.
B. Choose dishes having 80-90% confluence for the experiment. Trypsinize cells and stop reaction by adding 10% CS DMEM medium. Suspend cells in DMEM medium (10% CS DMEM medium) and centrifuge once at 1000 rpm, and once at room temperature for 5 minutes.
C. Resuspend cells in seeding medium (DMEM, 0.5% bovine serum), and count the cells using trypan blue. Viability above 90% is acceptable. Seed cells in DMEM medium (0.5% bovine serum) at a density of 10,000 cells per well, 100 μl per well, in a 96 well microtiter plate. Incubate seeded cells in 5% CO2 at 37° C. for about 40 hours.
A. Check seeded cells for contamination using an inverted microscope. Dilute drug stock (10 mg/ml in DMSO) 1:10 in DMEM medium, then transfer 5 μl to a test well for a final drug dilution of 1:200 and a final DMSO concentration of […]. Control wells receive DMSO alone. Incubate in 5% CO2 at 37° C. for one hour.
B. Prepare EGF ligand: dilute stock EGF in DMEM so that upon transfer of 10 μl dilute EGF (1:12 dilution), 25 nM final concentration is attained.
C. Prepare fresh HNTG* sufficient for 100 μl per well; and place on ice.
D. After two hours incubation with drug, add prepared EGF ligand to cells, 10 μl per well, to yield a final concentration of 25 nM. Control wells receive DMEM alone. Incubate, shaking, at room temperature, for 5 minutes.
E. Remove drug, EGF, and DMEM. Wash cells twice with PBS. Transfer HNTG* to cells, 100 μl per well. Place on ice for 5 minutes. Meanwhile, remove blocking buffer from other ELISA plate and wash with TBST as described above.
F. With a pipette tip securely fitted to a micropipettor, scrape cells from plate and homogenize cell material by repeatedly aspirating and dispensing the HNTG* lysis buffer. Transfer lysate to a coated, blocked, and washed ELISA plate. Incubate shaking at room temperature for one hour.
G. Remove lysate and wash 4 times with TBST. Transfer freshly diluted anti-Ptyr antibody to ELISA plate at 100 μl per well. Incubate shaking at room temperature for 30 minutes in the presence of the anti-Ptyr antiserum (1:3000 dilution in TBST).
H. Remove the anti-Ptyr antibody and wash 4 times with TBST. Transfer the freshly diluted TAGO anti-rabbit IgG antibody to the ELISA plate at 100 μl per well.

[1] = tested on: MCF7 cells overexpress the HER2 kinase (MCF7-HER2); assay: MCF-7/HER-2 SRB growth assay; format: cell-based, human; details: Table VI, 0.5% FBS, four days
Text: as §1, with “This example illustrates the ability of the exemplary compounds to inhibit receptor tyrosine kinases, such as HER2 and/or EGFR. The” for “The”
MCF-7 cells are seeded at 2000 cells/ well in a 96-well flat bottom plate in normal growth media, which was 10% FBS/RPMI supplemented with 2 mM Glutamine. The plate of cells is incubated for about 24 hours at 37° C. after which it receives an equal volume of compound dilution per well making the total volume per well 200 μl. The compound is prepared at 2 times the desired highest final concentration and serially diluted in the normal growth media in a 96-well round bottom plate and then transferred to plate of cells. DMSO serves as the vector control up to 0.2% as final concentration. The cells are then incubated at 37° C. in a humidified 5% CO2 incubator.
Four days following dosing of compound, the media is discarded and 200 μl/well of ice-cold 10% TCA (Trichloroacetic Acid) is added to fix cells. After 60 minutes at 4° C., the TCA is discarded and the plate is rinsed 5 times with water. The plate is then air-dried and 100 μl/well of 0.4% SRB (Sulforhodamine B from Sigma) in 1% Acetic Acid is added to stain cells for 10 minutes at room temperature. The SRB is discarded and the plate is rinsed 5 times with 1% Acetic Acid. After the plate is completely dried, 100 μl/well of 10 mM Tris-base is added to solubilize the dye. After 5 to 10 minutes, the plate is read on a Dynatech ELISA Plate Reader at dual wavelengths at 570 nm and 630 nm.
8. MCF-7/HER-2 SRB Growth Assay
The protocol is basically the same as that above (for the MCF-7 Growth Assay) except that immediately before the compound is added, the normal growth media is removed and 0.5% FBS/RPMI supplemented with 2 mM Glutamine is added onto the cells. The compound is also prepared in this 0.5% serum media. The plate of cells is incubated for four days and developed as usual.

[2] = Table V, read-out: Estimated IC50 Cellular Kinase Assays EGFR (EGF-3T3)
[3] = Table VI, cellular kinase assay, read-out: EGFR-3T3

Molecule | IC50 (human EGF receptor; [2]) | IC50 (human EGF receptor; [3]) [µM] | IC50 ([1]; Homo sapiens, MCF7, 96 h) [µM] | IC50 [1] [µM]
N#C/C(=C\c1ccc(O)c(O)c1)C(=S)NCc1ccccc1 [Compound M13] | > 100 µM | > 100 | – | –
CC(C)c1cc(C=C(C#N)C(N)=C(C#N)C#N)cc(C(C)C)c1O [Compound M22, (E)-2-(1-Amino-2,2-dicyanoethenyl-3-(3,5-diisopropyl-4-hydroxyphenyl)acrylonitrile)] | – | > 50 | 9 | –
(E,E)-2-[[-Cyano-2-(3,5-diisopropyl-4-hydroxyphenyl)ethenyl]sulfonyl]-3-(3,5-di-t-butyl-4-hydroxyphenyl)acrylonitrile [Compound M37] | – | > 100 | – | 1
CC(C)(C)c1cc(/C=C(\C#N)C(=O)NCCCc2ccccc2)cc(C(C)(C)C)c1O [Compound M20, (E)-3-(3,5-di-t-Butyl-4-hydroxyphenyl)-2-[(3-phenyl-n-propyl)aminocarbonyl]acrylonitrile] | – | > 100 | 0.6 | –
N#C/C(=C\c1cc(O)c(O)c(I)c1)C(=O)NCCCc1ccccc1 [Compound M16] | 4 µM and 4.4 µM | 9 | – | –
CC(C)c1cc(/C=C(\C#N)C(=O)NCCCc2ccccc2)cc(C(C)C)c1O [Compound M21, (E)-3-(3,5-Diisopropyl-4-hydroxyphenyl)-2-[(3-phenyl-n-propyl)aminocarbonyl]acrylonitrile] | – | > 100 | 2 | –
N#C/C(=C\c1ccc(O)c(O)c1)C(=O)Nc1cccc(C(F)(F)F)c1 [Compound M15] | > 100 µM | > 100 | 6 | –
CC(C)(C)c1cc(/C=C(\C#N)C(N)=S)cc(C(C)(C)C)c1O [Compound M11] | 40 µM | 21 | 0.2 | –

Second part, led by results:

IC50 (human EGF receptor; [2]) | IC50 (human EGF receptor; [3]) [µM] | IC50 ([1]; Homo sapiens, MCF7, 96 h) [µM] | Molecule | IC50 [1] [µM]
– | 56 | 2 | CC(C)(C)c1cc(/C=C(\C#N)S(=O)(=O)CC#N)cc(C(C)(C)C)c1O [Compound M36, (E)-3-(3,5-di-t-Butyl-4-hydroxyphenyl)-2-(cyanomethylsulfonyl)acrylonitrile] | –
– | 61 | 2 | CC(C)c1cc(/C=C(\C#N)S(=O)(=O)c2ccccc2)cc(C(C)C)c1O [Compound M30] | –
– | > 50 | 2 | CC(C)c1cc(/C=C(\C#N)S(=O)(=O)/C(C#N)=C/c2cc(C(C)C)c(O)c(C(C)C)c2)cc(C(C)C)c1O [Compound M29] | –
– | > 100 | 0.06 | CC(C)(C)c1cc(/C=C(\C#N)S(=O)(=O)c2ccccn2)cc(C(C)(C)C)c1O [Compound M34, (E)-3-(3,5-di-t-Butyl-4-hydroxyphenyl)-2-[(pyrid-2-yl)sulfonyl]acrylonitrile] | –
– | > 50 | 1 | CC(C)c1cc(/C=C(\C#N)C(=S)NCCCc2ccccc2)cc(C(C)C)c1O [Compound M24, (E)-3-(3,5-Diisopropyl-4-hyrdroxyphenyl)-2-[(3-phenyl-n-propyl)aminothiocarbonyl]acrylonitrile] | –
– | > 100 | 0.09 | CC(C)(C)c1cc(/C=C(\C#N)C(=O)Nc2ccc(C(F)(F)F)cc2)cc(C(C)(C)C)c1O [Compound M35, (E)-3-(3,5-di-t-Butyl-4-hydroxyphenyl)-2-[(4-trifluoromethyl)phenylaminocarbonyl]acrylonitrile] | –
– | > 50 | 6 | CC(C)c1cc(/C=C(\C#N)S(=O)(=O)CC#N)cc(C(C)C)c1O [Compound M27] | –
– | 64 | > 50 | Cc1cc(/C=C(\C#N)S(=O)(=O)c2ccccn2)cc(C)c1O [Compound M32] | –
– | > 100 | – | CC(C)c1cc(/C=C(\C#N)S(=O)(=O)c2ccccn2)cc(C(C)C)c1O [Compound M26] | –
– | > 100 | 0.05 | CC(C)(C)c1cc(/C=C(\C#N)S(=O)(=O)c2ccccc2)cc(C(C)(C)C)c1O [Compound M33, (E)-3-(3,5-di-t-Butyl-4-hydroxyphenyl)-2-(phenylsulfonyl)acrylonitrile] | –
– | > 100 | – | Cc1cc(/C=C(\C#N)S(=O)(=O)c2ccccc2)cc(C)c1O [Compound M31] | –
